According to PubChem BioAssay AID1919017 (Molecular Pharmacology Branch, DTP, NCI, 2023):

System: SW1271 complex spheroids with HUVEC/MSC, growth, % test/control
Experiment: Anticancer human tumor SW1271 cell line growth inhibition [AhR];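 note: spheroids exposed to agents for 7 days before readout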
Details: for IC50: curve of first compound; for viability, T/C: stronger effect = lower value
From the text: Multicellular complex tumor spheroid response to aryl hydrocarbon receptor antagonists in combination with a variety of drugs and investigational agents in selected tumor cell lines
The current study was undertaken to assess response to aryl hydrocarbon receptor antagonists in combination with standard-of-care drugs and investigational agents in solid tumor complex spheroid models. Complex spheroids include a stromal component modeled by human endothelial cells (HUVEC) and fibroblasts modeled by human mesenchymal stem cells (MSCs). The concentration ranges selected for each drug and investigational agent were based upon clinically achievable concentrations if the clinical Cmax of the agent was known.
Compounds. The drugs and investigational agents: BAY 2416964 (NSC825713), GNF351 (NSC835774), CH-223191 (NSC835775), CPI-455 (NSC825282), aza-TdCyd (NSC777586), decitabine (NSC127716), belinostat (NSC758774), entinostat (NSC756642), pevonedistat (NSC761192), tazemetostat (NSC777109), talazoparib (NSC765396), olaparib (NSC753686), selinexor (NSC780203), nedisertib (M3814, NSC802822), bortezomib (NSC756655), venetoclax (NSC766270), doxorubicin (NSC123127), elimusertib (BAY189344, NSC800525), ceralasertib (AZD6738, NSC777638), TAK-243 (NSC785004), alisertib (NSC759677), etoposide (NSC141540), topotecan (NSC609699), eribulin (NSC707389), gemcitabine (NSC613327), carboplatin (NSC241240), cisplatin (NSC119875), and SN-38 (NSC673596) were obtained from the National Cancer Institute (NCI) Developmental Therapeutics Program Chemical Repository (32). The FDA-approved anticancer drug set is available from the Developmental Therapeutics Program at https://dtp.cancer.gov/organization/dscb/obtaining/available plates.htm. […] The stock solutions were prepared in dimethyl sulfoxide (DMSO, Sigma-Aldrich, St. Louis, MO, cat. D2650), except for the platinum compounds which were prepared in saline (Quality Biological, Gaithersburg, MD, cat. 114-055-101), at 800-fold the tested concentration and stored at -70 degrees C prior to their use. All drugs and investigational agents were tested over a range starting from a high concentration at or near the clinical Cmax and decreasing in half-log increments. If the clinical Cmax for an agent had not been determined, the highest concentration tested was 10 microM (Table 1).
Cell Culture. All cells were maintained in an incubator at 37 degrees C and 5% CO2 with 95% humidity. The PDC lines were cultured according to standard operating procedures established by the NCI PDMR (https://pdmr.cancer.gov). Briefly, all PDCs were thawed and cultured in Matrigel-coated flasks prepared with a working solution of 1X Ham's F-12 nutrient mix, without supplementation (Invitrogen, Waltham, MA, cat. 11765054), 100 U/mL penicillin-streptomycin (Invitrogen, cat. 15140122), and 2.5% Matrigel (Corning Inc., Corning, NY, cat. 354248) for the first three passages. All PDCs were cultured in complete DMEM/F-12 media containing advanced DMEM/F-12 (Invitrogen, cat. 12634028), 4.9% defined fetal bovine serum, heat inactivated (HyClone Laboratories Inc., Logan, UT, cat. SH30070.03HI), 389 ng/mL hydrocortisone (Sigma-Aldrich, cat. H4001), 9.7 ng/mL human EGF recombinant protein (Invitrogen, cat. PHG0313), 23.4 microg/mL adenine (Sigma-Aldrich, cat. A2786), 97.3 U/mL penicillin-streptomycin (Invitrogen, cat. 15140122), 1.9 mM L-glutamine (Invitrogen, cat. 25030081), and 9.7 microM Y-27632 dihydrochloride (Tocris Bioscience, Bristol, United Kingdom, cat. 1254). The PDCs were cultured in complete DMEM/F12 media without 10 microM Y-27632 dihydrochloride for at least two passages prior to the screen. The established cell lines NCI-H1341 and […] were cultured in DMEM/F-12, HEPES (Invitrogen, cat. 11330032), 5% defined fetal bovine serum (HyClone Laboratories Inc., cat. SH30070.03), ITS premix universal culture supplement [insulin (5 microg/mL), transferrin (5 microg/mL), and selenious acid (5 ng/mL)] […]

[1] = second compound 0.1 µM, first compound 0.0316 µM
[2] = second compound 0.1 µM, first compound 0.1 µM
[3] = second compound 0.1 µM, first compound 0.316 µM
[4] = second compound 0.1 µM, first compound 1 µM
[5] = second compound 0.1 µM, first compound 3.16 µM
[6] = second compound 0.1 µM, first compound 10 µM
[7] = second compound 0.316 µM, first compound 0.0316 µM
[8] = second compound 0.316 µM, first compound 0.1 µM
[9] = second compound 0.316 µM, first compound 0.316 µM
[10] = second compound 0.316 µM, first compound 1 µM
[11] = second compound 0.316 µM, first compound 3.16 µM
[12] = second compound 0.316 µM, first compound 10 µM
[13] = second compound 1 µM, first compound 0.0316 µM
[14] = second compound 1 µM, first compound 0.1 µM
[15] = second compound 1 µM, first compound 0.316 µM
[16] = second compound 1 µM, first compound 1 µM
[17] = second compound 1 µM, first compound 3.16 µM
[18] = second compound 1 µM, first compound 10 µM
[19] = second compound 3.16 µM, first compound 0.0316 µM
[20] = second compound 3.16 µM, first compound 0.1 µM
[21] = second compound 3.16 µM, first compound 0.316 µM
[22] = second compound 3.16 µM, first compound 1 µM
[23] = second compound 3.16 µM, first compound 3.16 µM
[24] = second compound 3.16 µM, first compound 10 µM
[25] = second compound 10 µM, first compound 0.0316 µM
[26] = second compound 10 µM, first compound 0.1 µM
[27] = second compound 10 µM, first compound 0.316 µM
[28] = second compound 10 µM, first compound 1 µM
[29] = second compound 10 µM, first compound 3.16 µM
[30] = second compound 10 µM, first compound 10 µM

CC(C)CC(NC(=O)C(Cc1ccccc1)NC(=O)c1cnccn1)B(O)O (stereo not given) + CC(CO)NC(=O)c1cc(-c2ccc(Cl)cc2)nn(-c2cnn(C)c2)c1=O
IC50 (second compound 0.1 µM): 4.95 nM | IC50 (second compound 0.316 µM): 5.08 nM | IC50 (second compound 1 µM): 5.33 nM | IC50 (second compound 3.16 µM): 4.77 nM | IC50 (second compound 10 µM): 4.41 nM | viability, T/C (second compound 0.1 µM, first compound 0.000949 µM): 116% | viability, T/C (second compound 0.1 µM, first compound 0.003 µM): 86.6% | viability, T/C (second compound 0.1 µM, first compound 0.00949 µM): 2.31% | viability, T/C (second compound 0.1 µM, first compound 0.03 µM): 0.27% | viability, T/C (second compound 0.1 µM, first compound 0.0949 µM): 0.34% | viability, T/C (second compound 0.1 µM, first compound 0.3 µM): 0.41% | viability, T/C (second compound 0.316 µM, first compound 0.000949 µM): 92.5% | viability, T/C (second compound 0.316 µM, first compound 0.003 µM): 88.3% | viability, T/C (second compound 0.316 µM, first compound 0.00949 µM): 4.62% | viability, T/C (second compound 0.316 µM, first compound 0.03 µM): 0.41% | viability, T/C (second compound 0.316 µM, first compound 0.0949 µM): 0.43% | viability, T/C (second compound 0.316 µM, first compound 0.3 µM): 0.4% | viability, T/C (second compound 1 µM, first compound 0.000949 µM): 99.9% | viability, T/C (second compound 1 µM, first compound 0.003 µM): 97.5% | viability, T/C (second compound 1 µM, first compound 0.00949 µM): 2.34% | viability, T/C (second compound 1 µM, first compound 0.03 µM): 0.34% | viability, T/C (second compound 1 µM, first compound 0.0949 µM): 0.31% | viability, T/C (second compound 1 µM, first compound 0.3 µM): 0.55% | viability, T/C (second compound 3.16 µM, first compound 0.000949 µM): 66.9% | viability, T/C (second compound 3.16 µM, first compound 0.003 µM): 96.6% | viability, T/C (second compound 3.16 µM, first compound 0.00949 µM): 3.1% | viability, T/C (second compound 3.16 µM, first compound 0.03 µM): 0.44% | viability, T/C (second compound 3.16 µM, first compound 0.0949 µM): 0.3% | viability, T/C (second compound 3.16 µM, first compound 0.3 µM): 0.38% | viability, T/C (second compound 10 µM, first compound 0.000949 µM): 73.6% | viability, T/C (second compound 10 µM, first compound 0.003 µM): 75.2% | viability, T/C (second compound 10 µM, first compound 0.00949 µM): 1.45% | viability, T/C (second compound 10 µM, first compound 0.03 µM): 0.5% | viability, T/C (second compound 10 µM, first compound 0.0949 µM): 0.51% | viability, T/C (second compound 10 µM, first compound 0.3 µM): 0.39%

COc1cc(C2c3cc4c(cc3C(OC3OC5COC(C)OC5C(O)C3O)C3COC(=O)C23)OCO4)cc(OC)c1O (stereo not given) + CC(CO)NC(=O)c1cc(-c2ccc(Cl)cc2)nn(-c2cnn(C)c2)c1=O
IC50 (second compound 0.1 µM): 9250 nM | IC50 (second compound 0.316 µM): 5010 nM | IC50 (second compound 1 µM): 8480 nM | IC50 (second compound 3.16 µM): 3030 nM | IC50 (second compound 10 µM): 2910 nM | viability, T/C [1]: 78.3% | viability, T/C [2]: 74.3% | viability, T/C [3]: 66.5% | viability, T/C [4]: 72.7% | viability, T/C [5]: 57.1% | viability, T/C [6]: 49.5% | viability, T/C [7]: 93.5% | viability, T/C [8]: 77.6% | viability, T/C [9]: 60.4% | viability, T/C [10]: 57.9% | viability, T/C [11]: 56% | viability, T/C [12]: 44.5% | viability, T/C [13]: 64.7% | viability, T/C [14]: 78.5% | viability, T/C [15]: 59.4% | viability, T/C [16]: 60.1% | viability, T/C [17]: 61.6% | viability, T/C [18]: 47.7% | viability, T/C [19]: 70.9% | viability, T/C [20]: 68% | viability, T/C [21]: 59.6% | viability, T/C [22]: 45.2% | viability, T/C [23]: 59.2% | viability, T/C [24]: 43.6% | viability, T/C [25]: 71.1% | viability, T/C [26]: 65% | viability, T/C [27]: 50.7% | viability, T/C [28]: 63.7% | viability, T/C [29]: 43.4% | viability, T/C [30]: 48.3%

COc1ccc([C@@H](O)c2cc(-c3ncnc4cc(N5CCOCC5)ccc34)c(F)cc2Cl)nn1 + Cc1ccccc1N=Nc1ccc(NC(=O)c2ccnn2C)c(C)c1
IC50 (second compound 0.1 µM): 2220 nM | IC50 (second compound 0.316 µM): 2550 nM | IC50 (second compound 1 µM): 5040 nM | IC50 (second compound 3.16 µM): 4750 nM | IC50 (second compound 10 µM): 1980 nM | viability, T/C [1]: 97.2% | viability, T/C [2]: 98.1% | viability, T/C [3]: 87.2% | viability, T/C [4]: 58.6% | viability, T/C [5]: 50% | viability, T/C [6]: 33.9% | viability, T/C [7]: 82.9% | viability, T/C [8]: 94.2% | viability, T/C [9]: 77.6% | viability, T/C [10]: 65% | viability, T/C [11]: 47.6% | viability, T/C [12]: 33.5% | viability, T/C [13]: 94.6% | viability, T/C [14]: 89% | viability, T/C [15]: 86.2% | viability, T/C [16]: 68.1% | viability, T/C [17]: 57.9% | viability, T/C [18]: 40.4% | viability, T/C [19]: 84.5% | viability, T/C [20]: 80.5% | viability, T/C [21]: 70.6% | viability, T/C [22]: 68.9% | viability, T/C [23]: 59.2% | viability, T/C [24]: 36.8% | viability, T/C [25]: 89.5% | viability, T/C [26]: 73.5% | viability, T/C [27]: 77.7% | viability, T/C [28]: 60.9% | viability, T/C [29]: 41.2% | viability, T/C [30]: 37.4%
